# According to PMC10953043, “Fluorogenic Granzyme A Substrates Enable Real‐Time Imaging of Adaptive Immune Cell Activity” (Angewandte Chemie (Weinheim an Der Bergstrasse, Germany), 2023):
# Biological target: T1, human GzmA (hGzmA), active recombinant (Homo sapiens, UniProt P12544)
# T1 construct: active recombinant enzyme (not the pro-form), dimeric
# T1 sequence (P12544 29-262): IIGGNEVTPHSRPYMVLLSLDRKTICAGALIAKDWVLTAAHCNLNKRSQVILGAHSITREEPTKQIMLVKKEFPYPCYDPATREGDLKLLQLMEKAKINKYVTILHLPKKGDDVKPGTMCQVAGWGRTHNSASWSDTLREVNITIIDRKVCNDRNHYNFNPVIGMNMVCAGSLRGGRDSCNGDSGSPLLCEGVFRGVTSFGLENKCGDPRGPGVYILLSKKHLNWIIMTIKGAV
# Test: fluorogenic assay with compound […] as substrate
# Assay type: biochemical
# Settings: 100 μM inhibitor, 20 μM compound 9, 20 nM hGzmA, Tris buffer pH 8; covalent
smiles,measurement,value
"O=c1oc(Cl)c(Cl)c2ccccc12 [3,4‐dichloroisocoumarin]",% decrease of the fluorescence signal,> 90%
